PubChem BioAssay (NCI)
Where “and” joins values, the source holds several entries; their conditions need not be identical. Equal values may be shown once.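 Five concentrations, 48 hours, 96-well plates. GI50: concentration for 50% inhibition of growth. TGI: total growth inhibition.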

Key:
Assay in all cases: NCI anticancer screen, dose series, 48 h
DLD-1 colon = system: DLD-1 colon
RXF-631 renal = system: RXF-631 renal
SNB-78 CNS = system: SNB-78 CNS
M19-MEL melanoma = system: M19-MEL melanoma
LXFL 529 NSCLC = system: LXFL 529 NSCLC
HOP-18 NSCLC = system: HOP-18 NSCLC
MDA-N = system: MDA-N
DMS 273 small cell lung = system: DMS 273 small cell lung
XF 498 CNS = system: XF 498 CNS

SMILES | TGI (DLD-1 colon) | TGI (RXF-631 renal) | TGI (SNB-78 CNS) | TGI (M19-MEL melanoma) | TGI (LXFL 529 NSCLC) | TGI (HOP-18 NSCLC) | TGI (MDA-N) | TGI (DMS 273 small cell lung) | TGI (XF 498 CNS) | further results
CC1(C)C2CCC13CS(=O)(=O)N1O[C@]13C(=O)O2 (stereo not given in full) | > 100 µM | > 100 µM | > 100 µM | > 100 µM | > 100 µM | > 100 µM |  |  |  | 
COc1ccc(-c2cc(=O)c3c(OC)c(OC)c(OC)c(OC)c3o2)cc1 |  |  |  |  |  |  | > 100 µM |  |  | 
C=C1CCC2[C@@H](CCC3[C@]2(C)CCC[C@]3(C)C(=O)OC)[C@@H]1CC=O (stereo not given in full) | > 100 µM | > 100 µM | > 100 µM | 49 µM | > 100 µM | 86 µM |  | 50.1 µM | 61.6 µM | GI50 (RXF-631 renal): 44.9 µM
c1ccc(P(=Nc2ccccc2N=P(c2ccccc2)(c2ccccc2)c2ccccc2)(c2ccccc2)c2ccccc2)cc1 | 13 µM | 6.64 µM | 19.9 µM | 12.1 µM | 12.1 µM | 0.844 µM |  | 10 µM | 0.543 µM | 
Cc1ccc(C2=Nc3ccccc3SC(c3cccc([N+](=O)[O-])c3)C2)cc1 (stereo not given) |  |  |  |  |  |  | > 100 µM |  |  | 
COC(=O)C(C)(C)N=CN(C)C | > 100 µM | > 100 µM | > 100 µM | > 100 µM | > 100 µM | > 100 µM |  | > 100 µM | > 100 µM | 
O=C(NC1CCCC1=O)c1ccccc1 (stereo not given) | > 100 µM | > 100 µM | > 100 µM | > 100 µM |  |  |  | > 100 µM | > 100 µM | 
CC1(C)OCC(C(O)C2OC(C)(C)OC2/C=N\O)O1 (stereo not given) | > 100 µM |  | > 100 µM | > 100 µM | > 100 µM | > 100 µM |  | > 100 µM | > 100 µM | 
CNS(=O)(=O)NNS(=O)(=O)c1ccc(Cl)cc1 | > 100 µM | > 100 µM |  | > 100 µM |  |  |  |  |  | 
Cc1ccc(S(=O)OC2C3CC4CC(C3)CC2C4)cc1 (stereo not given) | > 100 µM |  | > 100 µM | > 100 µM | > 100 µM | > 100 µM |  | > 100 µM | > 100 µM | 
CN(C)c1ccc(/C=C2\C=Cc3ccccc32)cc1 | > 100 µM |  |  | > 100 µM | > 100 µM | > 100 µM |  | > 100 µM |  | 
Cc1cc(N(CCC#N)CCC#N)ccc1/C=C1N=C(/C=C\c2ccccc2)N(c2ccc(Cl)cc2)C\1=O | > 100 µM |  | > 100 µM | > 82.7 µM |  | > 100 µM | > 100 µM | > 100 µM | > 100 µM | 
CN(C)CC1CCCC1=O (stereo not given) | 1.03 µM | 0.377 µM | 6.12 µM | 2.33 µM | 1.4 µM | 3.16 µM |  | 3.28 µM | 2.11 µM | 
CCCCCCN(N)C(=O)CC#N | > 100 µM | > 100 µM | > 100 µM | > 100 µM | > 100 µM | > 100 µM |  | > 100 µM |  | 
CC1CN1c1c(C(=O)/C=C/c2ccccc2)c(-c2ccccc2)nn(C)c1=O (stereo not given) | 34.5 µM |  | 33.7 µM | 35.1 µM | 28.9 µM | 71.5 µM |  | 30.3 µM |  | 
N/N=C1\CC(=O)NC(=O)N1 |  |  |  |  |  |  | > 100 µM |  |  | 
Fc1cccc(C2SCc3nc4ccccc4n32)c1F (stereo not given) | > 100 µM | 36 µM | > 100 µM | > 100 µM | > 100 µM | > 100 µM |  | 50.5 µM |  | 
N#Cc1ccc(N=Cc2c([O-])ccc3ccccc23)cc1.[C-]#[O+].[C-]#[O+].[Ir] | 4.09 µM |  |  |  | 4.32 µM | 8.51 µM |  |  | 12 µM | GI50 (DLD-1 colon): 1.96 µM; GI50 (XF 498 CNS): 2.36 µM; GI50 (LXFL 529 NSCLC): 1.84 µM; GI50 (HOP-18 NSCLC): 2.74 µM

SMILES | TGI (DLD-1 colon) | TGI (RXF-631 renal) | TGI (SNB-78 CNS) | TGI (M19-MEL melanoma) | TGI (LXFL 529 NSCLC) | TGI (HOP-18 NSCLC) | TGI (MDA-N) | TGI (DMS 273 small cell lung) | TGI (XF 498 CNS) | further results
COc1cc2nc(NCCCCCNC(=O)c3ccco3)nc(N)c2cc1OC |  | 74.1 µM | 89.5 µM | 61.4 µM |  | > 100 µM |  | > 100 µM |  | 
CCC1(O)C(=O)OCc2c1cc1n(c2=O)Cc2cc3cc(N)ccc3nc2-1 (stereo not given) |  |  |  |  |  |  | 0.285 µM |  |  | 
C/C=C(\C)c1cc(O)c(C)c2c1Oc1cc(O)c(Cl)c(C)c1C(=O)O2 | 33.9 µM |  | 82.6 µM | 81.8 µM | 60 µM |  |  | 67.9 µM |  | 
O=C(O)/C(Cl)=C(\Cl)C(=O)Nc1ccc(Cl)c(Cl)c1Cl | 47.3 µM |  | 84.7 µM | 30.8 µM | 37.9 µM | 31 µM |  | 36.2 µM |  | 
CN(CC(N)=O)C(=O)N(CCCl)N=O |  |  |  |  |  |  | > 100 µM |  |  | 
CC1(C)CCC[C@]2(C)[C@@H](C=O)C(C=O)=CC[C@@H]12 |  |  |  |  |  |  | 26.4 µM |  |  | 
COc1ccc(C=O)c(NC(=O)C(C)C)c1 |  |  | > 100 µM | 49.5 µM | > 100 µM | 90.6 µM |  | > 100 µM | 68.9 µM | 
CCO/C=C1\N=C(c2ccccc2Br)OC1=O | > 100 µM |  | > 100 µM | > 100 µM | > 100 µM |  |  | > 100 µM | > 100 µM | 
O=C(O)COc1c(Cl)cc(Cl)c2cccnc12 |  |  |  |  |  |  | > 100 µM |  |  | 
CC(C)c1c2[nH]c3ccccc3c2c(C(C)C)c2[nH]c3ccccc3c12 | > 100 µM | > 100 µM | > 100 µM | > 100 µM | > 100 µM | > 100 µM |  | > 100 µM | > 100 µM | 
CC1(C)OC2C(=O)C=C(COCc3ccccc3)C2O1 (stereo not given) |  |  |  |  |  |  | > 100 µM |  |  | 
CN(C)c1ccc(N=Nc2ccncc2)cc1 |  |  |  |  |  |  | > 100 µM |  |  | 
COc1ccc(C(Cl)=C(c2ccc(OCCN(C)C)cc2)c2ccc(OCCN(C)C)cc2)cc1 | 11.3 µM | 0.966 µM | 3.94 µM |  |  |  |  | 4.17 µM | 2.81 µM | 
CCOC(=O)C(=O)Nc1cc(Cl)ccc1Cl | > 100 µM |  |  | > 100 µM | > 100 µM | > 100 µM |  | > 100 µM | > 100 µM | 
COC(CN1C=C(Sc2ccccc2)CC1)OC | > 100 µM |  | > 100 µM | 97.7 µM |  | > 100 µM |  |  | 66.3 µM | 
C/C1=C\[C@@H](O)C(=O)/C=C/C=C\c2csc(n2)[C@@H](C)NC(=O)C[C@@]2(CC1)S(=O)SC(=O)[C@]2(C)O (stereo not given in full) | 0.213 µM and 0.0233 µM |  | 0.0589 µM |  | 0.0333 µM and 0.0187 µM | 0.178 µM |  | 0.106 µM |  | 
Cc1ccc(NC(=O)c2ccccc2C(=O)O)cc1C |  |  |  |  |  |  | > 100 µM |  |  | 
CSC(=S)N/N=C(\C)c1cccc(C)n1 |  |  |  |  |  |  | > 90 µM |  |  | 
